The term IC50 denotes the point on the concentration scale where inhibition reaches its midpoint.

From article PMC7476666 (Journal of the American Chemical Society, 2016) come the findings set out here.

For one assay, the target named is T1, EphB3 WT (Homo sapiens, UniProt P54753).
T1 sequence (P54753 34-998): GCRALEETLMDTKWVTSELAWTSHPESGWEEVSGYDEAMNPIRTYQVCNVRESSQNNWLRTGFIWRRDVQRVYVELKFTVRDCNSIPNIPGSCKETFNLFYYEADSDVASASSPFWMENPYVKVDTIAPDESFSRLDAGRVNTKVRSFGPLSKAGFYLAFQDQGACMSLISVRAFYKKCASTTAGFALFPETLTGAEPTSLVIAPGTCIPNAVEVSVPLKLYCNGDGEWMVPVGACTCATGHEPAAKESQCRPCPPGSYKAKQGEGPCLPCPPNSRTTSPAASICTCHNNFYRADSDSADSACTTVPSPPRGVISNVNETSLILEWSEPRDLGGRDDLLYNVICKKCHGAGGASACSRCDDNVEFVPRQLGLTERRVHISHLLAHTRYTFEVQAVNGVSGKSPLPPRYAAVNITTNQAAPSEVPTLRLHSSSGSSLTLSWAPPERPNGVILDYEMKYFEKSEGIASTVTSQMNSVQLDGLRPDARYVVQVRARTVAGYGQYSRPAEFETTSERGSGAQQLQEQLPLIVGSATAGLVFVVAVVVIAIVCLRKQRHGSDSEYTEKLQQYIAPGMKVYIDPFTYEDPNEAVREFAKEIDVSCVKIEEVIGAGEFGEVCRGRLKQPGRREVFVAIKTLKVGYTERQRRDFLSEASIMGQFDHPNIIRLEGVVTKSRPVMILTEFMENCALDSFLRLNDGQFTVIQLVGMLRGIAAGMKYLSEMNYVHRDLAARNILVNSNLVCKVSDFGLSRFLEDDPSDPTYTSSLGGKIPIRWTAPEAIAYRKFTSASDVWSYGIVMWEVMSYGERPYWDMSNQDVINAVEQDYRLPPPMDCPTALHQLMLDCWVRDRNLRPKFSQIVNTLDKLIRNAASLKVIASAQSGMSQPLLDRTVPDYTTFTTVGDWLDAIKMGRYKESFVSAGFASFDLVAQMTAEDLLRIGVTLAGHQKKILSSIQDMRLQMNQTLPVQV
The assay is described as follows: EphB3 autophosphorylation in transfected HEK293 cells. The assay is classed as cell-based. The note with it: read-out: IC50, EphB3 autophosphorylation in cells.

Assay [1] deals with T2, EphB3 (Homo sapiens, UniProt P54753).
T2 sequence (P54753 34-998): T1 sequence (P54753 34-998)
Description: Competition / pulse-chase with probe 10 for EphB3 occupancy in HEK293 cells.

For assay [2], the target named is T2, EphB3. The assay is described as follows: Competition with probe 10 for EphB3 labeling in cell lysate. The assay is classed as binding.

For `Cc1ccc(C(=O)Nc2cccc(C(F)(F)F)c2)cc1Nc1nc(-c2cccnc2)nc2c1cnn2C` [BHG-712], the IC50 is 320 nM on EphB3 WT and 260 nM on EphB3 [1] (read-out: IC50 for probe labeling of EphB3, competition with 10 (10 nM) in cells). In addition, the “time to engage EphB3 (preincubation required to block labeling by 10)” value at EphB3 [1] (live cells) was “over 10 min”. At EphB3 [2], the “time to engage EphB3 (preincubation required to compete off labeling by 10)” value was “over 10 min”.
